Here are results for six molecules from US7429448B2, “Therapeutic use of the SMR1 protein and active derivatives thereof” (Institut Pasteur, priority 1998, dated 2008).

For data set [1] the following is noted: rat, in vivo.
Description: Labeled compound i.e. 6.66 MBq, 3 nmoles or 2 mg for whole body autoradiography (WBA) and 370-555 KBq, 170-250 pmoles or 110-160 ng for the pharmacokinetic and cellular-site distribution studies was diluted in 100-200 ml of phosphate-buffered saline (PBS Dulbecco's, Bio Media, France) and administered intravenously into the jugular vein of anesthetized rats (halothan for WBA or pentobarbital for all the other experiments).
The target tissues for the final secretory maturation product of SMR1, the pentapeptide, was examined, in vivo, by the whole body autoradiography procedure according to the method of Ullberg (Ullberg et al., 1981).
The five week-old rats were sacrificed under halothane, at 90 sec., 3, 60 and 240 min. after i.v. injection of 3 nmoles (6.66 MBq or 2 μg) of tritiated pentapeptide. At the selected time, the restrained animal was immediately immersed in a −80° C. mixture of dry ice and isopentane, to prevent artifactual tracer redistribution. After 48 hours in self-sealing plastic stored at −30° C., the animal was then blocked in mounting medium. Whole body sagittal sections (20 mm) of the frozen rat were made at −30° C. with a cryostat (whole body slicing microtome Leitz 400 with a chest mobile freezer Leitz O M, Leica, France). Sections adhering to Scotch tape were left in a freezer, temperature −30° C., for 4 days to insure complete drying. The tapes were placed in a film cassette with ^3H Hyperfilm (Amersham, France) at −20° C. After two weeks the films were developed in Kodak D19 developer and fixed in Kodak fixer.
Data from whole body sections or individual organ sections placed in the gas-chamber detector were collected for 8 hr. or 50 hr., respectively. The number of counts per pixel was recorded in the β imager 2200 (Biospace, France) with a surface detector of 20×20 cm^2, followed by computer-assisted image analysis with the β Vision program using a HP Vectra computer. The tritium activity was determined as counts/mm^2. The linearity of this method of detection allowed measurement of the non specific binding of ^3H-pentapeptide, measured in various structures or compartments within the section with apparent non binding sites for the peptide (background tissues, e.g. muscle and cardiac blood except brain and spinal cord) or in the same labeled structure, in displacement experiments.
Data set [2] relates to pentapeptide binding sites. The data set is described as follows: In vivo displacement of ^3H-pentapeptide uptake by coinjection of 100-fold excess unlabeled peptide. More on the design: species or system rat. The settings on record: for specific labeling percentage: 60 min, 100-fold excess unlabeled peptide. An excerpt:
Biological receptor sites have two essential characteristics that allow specific binding to be identified, in vivo; they have a high affinity for the ligand and the binding is saturable (Whitcomb et al., 1993). Therefore, displacement experiments, using parallel systemic administration of an excess of the corresponding unlabeled peptide has been performed. Furthermore, the specific cellular localization of labeled pentapeptide to target tissues has been identified by section microscopic autoradiography.
(§1) The cellular-site localization for physiological concentrations of labeled pentapeptide was investigated by paraffin- or resin-section microscopic autoradiography procedure. Sixty minutes after ^3H-pentapeptide (555 KBq, 160 ng or 250 pmoles) i.v. administration, the anesthetized male rats were perfused via the jugular veins with ice-cold Krebs Ringer Bicarbonate Glucosed buffer and then 0.5% paraformaldehyde/0.5% glutaraldehyde fixative PBS buffer (plus glucose 1.6%, CaCl2 0.002% and DMSO 1%) (50 ml/5 min. for each). Tissues were rapidly removed and harvested for paraffin sectioning (Paraplast plus-Sherwood medical, OSI, France) or for resin sectioning (histo-resin Leica, France). All sections were cut at 5 microns (Reichert Jung for paraffin and RM2155 Leica for resin sections) and mounted on Superfrost/Plus glass slides (non gelatin-coated). Paraffin was removed with xylene, and sections were carried through a descending, then an ascending ethanol series (from 100 to 50%, V/V and reverse). Dried sections were then processed for light microscope autoradiography by attaching nuclear emulsion-coated (Kodak, NTB2, diluted 1:1 with distilled water) coverslips to them. After air drying for 2 hrs at room temperature the autoradiographs were exposed for 6 to 10 weeks in light-tight boxes at 4° C. Radiosensitive coverslips were developed in Kodak D19 (3 min.) developer and fixed in Kodak fixer (3 min.) Sections were counterstained with Harris' hematoxylin (Prolabo, France) and Toluidine blue (Sigma, France), dehydrated and mounted in Eukitt medium. The tissue and overlying silver grains were viewed and photographed with a Leica photomicroscope equipped with bright-field optics (DMRD Leitz, Leica).
The tritium activity was determined as counts/mm^2.
In the case of radioactive quantification of organ sections or acid extracts, using a liquid scintillation counter (MR300Kontron), the tritium activity was determined as cpm/mg protein. Protein concentration was determined by the Bradford method (Bradford et al., 1976).

Data set [3] is described as follows: Pentapeptide metabolic and pharmacokinetic studies after i.v. bolus of tritiated pentapeptide. It counts as in vivo, rat. As for the experimental part: The in vivo time course of distribution, metabolism and elimination of the pentapeptide was investigated in anesthetized adult male rats using physiological concentrations of circulating tritiated pentapeptide.
Anesthetized male rats were given a bolus intravenous injection of 170 pmoles or 110 ng tritiated pentapeptide diluted in 100 μl PBS Dulbecco's. Blood was collected in tubes containing a mixture of peptidase inhibitors described above, via a silastic catheter implanted into the external jugular vein. Blood was withdrawn just before and 2, 4, 6, 8, 10, 20, 30, 45, 60, 90 and 120 min. after peptide administration. Two milliliters of blood per rat were taken in all and the entire urinary bladder content was collected at a last selected point.
The biological samples were submitted to centrifugation and Parapak Q extraction conditions, as described above. Chromatrography using HPLC procedure described above and in the reference (Rougeot et al., 1994) was then applied to each extracted sample. The ODS AQ RP-C18 was used for identification of amino-terminal metabolites and Pep RPC HR C18 (Pharmacia, France) for identification of carboxyl-terminal metabolites. The radioactivity content of samples before and after chromatographic separations was determined using a beta counter (Kontron, MR300).

Data set [4] has as its system ^3H-pentapeptide binding sites. Briefly: Cellular localization of ^3H-pentapeptide binding sites by light microscopic autoradiography. It counts as in vivo, rat. As for the experimental part:
as §1

Data set [5] is described as follows: Chromatographic characterization of radioactive peptide uptake by tissues. It counts as in vivo, rat. The settings on record: 180 min after injection. The method, then:
The chromatographic characteristics of the labeled compound associated, in vivo, to target organs were assessed by HPLC.
At selected time points (2 and 180 min.) after administration of tritiated pentapeptide, the anesthetized rats were sacrificed (cardiac blood puncture) and tissues quickly removed on ice. The tissues were immediately homogenized at 4° C. in 5-10 volumes of 0.1 M chlorhydric acid using a potter homogenizer (demineralization of bone tissue was realized after 24-48 h at 4° C. in guanidium hydrochloride and EDTA pretreatment, 4 M and 0.25 M final concentration, respectively). Homogenates were centrifuged for 30 min. at 4° C. and 15,000 g. To determine total radioactivity, aliquots of the supernatant solution were added to 50 volumes of Biofluor (NEN, Dupont de Nemours, France) and counted in a liquid scintillation counter.
To determine the radioactivity in the pentapeptide fraction, aliquots of the tissue extracts were submitted to a methanol-extraction procedure (Rougeot et al., 1994) after neutralization with Tris/HCl pH 8.5 containing 16 mM DTPA (DiethyleneTriaminePenta-Acetic acid, Sigma, France). […] Fractions were collected every 60 sec. and analyzed for radioactivity using a liquid scintillation counter.

For data set [6] the following is noted: rat, in vivo. The method, then: FIG. 4. Quantitative profile of radioactivity in various tissues following administration of 100 pmoles ^3H-hexapeptide, 60 min post-dose or plus 100 nmoles unlabelled peptide to non specific binding.
Quantification was assessed using a spectrometer and calculated as cpm/mg protein from whole tissue extracts.
FIG. 5. Quantitative profile of radioactivity in various tissues following administration of 5 pmoles ^125I-undecapeptide (VRGPRRQHNPR, SEQ ID NO: 7), 10 min post-dose or plus 100 nmoles unlabeled peptide to non specific binding.
Quantification was assessed using a gama-spectrometer and calculated as cpm/g tissue.
This is another data set of the same source.

Data set [7] deals with anti-pentapeptide serum (rabbit antiserum raised against QHNPR conjugated to egg albumin). Briefly: competitive liquid phase RIA, displacement of 125I-labelled pentapeptide from the antiserum. In general terms: Loss of bound radioactivity is the signal in a displacement assay; it reports binding, not function.
Setting [8] is: single i.v. injection of 110 ng.

Square brackets hold non-standard residues; d marks the D form. Ends that are not written are not given here. pGlu = O=C1CC[C@@H](C(=O)O)N1

Consider “QHNPR [pentapeptide, (Gln1)-His-Asn-Pro-Arg, tracer form is (Glp1/Gln1)-His-Asn-(3,4^3H)Pro-Arg]”, for which the “radioactivity in the intestinal content” value in data set [1] was “No radioactivity was found”. The “time by which binding to tissue sites has occurred” value in data set [1] is no more than 90 s. Besides, the “time over which binding is stable” value in data set [1] turned out to be 240 min. In data set [1], the “tissue to blood ratio” value is roughly 2. Further, the specific labeling percentage in data set [2] (glandular mucosa of the stomach) is recorded as 38-61%; in data set [2] (long bone), 29-38%; in data set [2] (pancreatic lobules) it was 37-55%; in data set [2] (submandibular lobules), 51-91%. In data set [2] (renal outer medullary), the “displacement of uptake by excess cold ligand” value is “almost complete displacement”. In data set [3] (over a 60 min period, anesthetized rats, 170 pmoles dose), the “amount eliminated through glomerular filtration” value worked out at 6 pmol. For the same molecule, in data set [3] (plasma), the “pentapeptide-binding substance complex as share of the circulating peptide fraction” value is “approximately 45%”. Besides, the “urine radioactivity that is pentapeptide metabolites” value in data set [3] (rat, in vivo) is on record as “Approximately 80%”. Also, the “time from which plasma concentration is back close to a basal level” value in data set [3] (setting [8]) is on record as no less than 30 min. Further, in data set [3] (setting [8]), the “time to maximal plasma level” value is no more than 2 min. The “infused pentapeptide metabolized in the bloodstream” value in data set [3] (within 4 min) was 35%. In addition, the “cellular localization of silver grains” value is “the trabeculae bone spaces” in data set [4] (bone tissue); “over the entire dentin layer” in data set [4] (dental tissue, upper incisor root); “over the chief or peptic cells” in data set [4] (glandular gastric mucosa); “over the epithelial cells of the S3 segment of the straight portion of the proximal tubules” in data set [4] (kidney, 60 min, physiological concentration); “over the cells of acini” in data set [4] (pancreatic tissue). Further, the cellular label result in data set [4] (glomeruli, epithelia of distal and collecting tubules) is on record as “No specific cellular label”; in data set [4] (pancreatic ducts and islets of Langerhans) it was “No label was observed”; in data set [4] (submandibular tissue) it was “no selective cell association of label was identifiable”. Besides, the “radioactive extract representing metabolites” value in data set [5] (DTPA) was 8±6%. The “radioactive peptide fraction extracted by methanol” value in data set [5] (DTPA 16 mM added) is given as 53±9%.
On to RQHNPR [hexapeptide], for which, in data set [6], the preferred target organs entry is “kidney and pancreas”; the “retention by the glandular mucosa of stomach” value was “very efficiently retained”; the “target organs compared with the pentapeptide” value is reported as “almost the same as the target organs of the pentapeptide”.
For VRGPRRQHNPR [undecapeptide], in data set [6], the preferred target organs entry is “kidney and pancreas”; the “target organs compared with the pentapeptide” value was “almost the same as the target organs of the pentapeptide”.

B1: (Glp1)-His-Asn-Pro-Arg (peptide)
peptide: [pGlu]HNPR
In data set [7], B1 had an amount of standard for 50% displacement of less than 570 fmol and a detection limit (80% binding) of 106 fmol.

B2: (Gln1)-His-Asn-Pro-Arg, SMR1-derived pentapeptide QHNPR (unlabelled) (peptide)
peptide: QHNPR
In data set [7], B2 displayed an amount of standard for 50% displacement of less than 570 fmol and a detection limit (80% binding) of 106 fmol.

B3: tetrapeptide sequence (QHNP) (peptide)
peptide: QHNP
B3 had a cross-reactivity in data set [7] of less than 0.01%.
